{"source": "patent US20230172920A1", "about": "“DOSING REGIMEN FOR TREATING A DISEASE MODULATED BY CSF-1R” (Novartis AG, priority 2020, published 2023)", "key": {"[1]": {"assay": "Blood and spinal cord exposure, 8-week SOD1G93A efficacy study", "assay_type": "in vivo, SOD1G93A mouse", "settings": "for Kp at 3 h / concentration at 3 h: mouse; for Kp at 3 h: spinal cord relative to blood; for concentration at 3 h: blood, read-out: Blood conc.", "description": "(§1) BLZ945 was dosed over an 8-week period in a mouse model of ALS (in house data). BLZ945 was tested for efficacy in preventing or delaying disease progression in the SOD1G93A ALS mouse (RD-2019-00092). […] Normal body weight gain is also impaired in this model. These physiological impairments are considered as mechanistic readouts given that they best recapitulate the clinical disease phenotype (Turner et al 2013). Animals were dosed from 8 to 16 weeks of age with daily (q.d) doses of BLZ945 at either 65 mg/kg, 170 mg/kg, or 170 mg/kg delivered intermittently with a 7 day ON/7 day OFF regimen.\nMicroglia were depleted by greater than 90% with the high dose (170 mg/kg) of BLZ945 and by about 50% with the low dose (65 mg/kg). […] Blood and CNS exposure to BLZ945 were measured at 3 hours post-dose on the day of necropsy (Table 8). BLZ945 spinal cord exposure ratios (relative to blood) were consistent across dose groups at approximately 0.4 (Table 9)."}, "[2]": {"tested_on": "MC38 syngeneic mouse model", "assay": "MC38 syngeneic mouse model, tumor growth", "assay_type": "in vivo, C57BL/6N mice", "settings": "repeat with suboptimal anti-PD-1 dose (5 mg/kg); BLZ945 4 days on/3 days off", "description": "In another set of experiments using the MC38 syngeneic mouse model in C57BL/6N mice two different schedules of BLZ945 were compared for efficacy (FIG. 3) using once weekly dosing of BLZ945 and 4 days on/3 days off dosing of BLZ945 alone and in combination with anti-PD-1. […] On day 14 post treatment start, there was a trend of tumor growth inhibition, corresponding to a % T/C vs. control of 28%.\nDoses of 200 mg/kg BLZ945 and 10 mg/kg anti-PD-1 were given on the schedules indicated and tumor volumes measured on day 14 after study initiation. Statistical significance was calculated using one-way ANOVA with post hoc Dunnett's test for comparison of treatment versus control group.\nEfficacy testing was repeated with a suboptimal dose of anti-PD-1 (5 mg/kg) in order to test for an additive effect of BLZ945 to be observed when given in combination."}, "SOD1G93A ALS mouse": {"tested_on": "SOD1G93A ALS mouse", "assay": "Body weight, grip strength and CMAP in the SOD1G93A ALS mouse, 8-week study (RD-2019-00092)", "assay_type": "in vivo", "description": "as §1\nFIG. 12: The effect of BLZ945 on body weight change over the eight-week study period. Data are presented as the percentage of body weight change relative to the first dosing day. Values are group means ([…]). Statistical analysis was by mixed linear effect model for repeated measures. * p<0.05; ** p<0.01; **** p<0.0001.\nHind limb grip strength and compound muscle action potentials (CMAP), an assessment of neuromuscular integrity, were measured as mechanistic readouts. In grip strength measurements, SOD1 G93A mice lost muscle force continuously after the 8th week of age. […] This was intermediate to the vehicle-treated SOD1 G93A and NCAR controls (FIG. 13 A). […] However, CMAPs were still lower than those of NCAR animals from study week 4 onward.\nFIG. 13: (A) The effect of BLZ945 on grip strength over the eight-week study period. Values are group means±SD (n=12-15). Statistical analysis was by mixed linear effect model for repeated measures. * p<0.05; ** p<0.01; *** p<0.001. (B) The effect of BLZ945 on TA muscle CMAP over the eight-week study period. Values are group means±SD (n=12-15). Statistical analysis was by mixed linear effect model for repeated measures. * […]; ** p<0.01; *** p<0.001."}}, "note": "Where two headings read alike, the source gives them in different places."}
{"compound": "CNC(=O)c1cc(Oc2ccc3nc(N[C@@H]4CCCC[C@H]4O)sc3c2)ccn1", "note": "[BLZ945, 4-((2-(((1R,2R)-2-hydroxycyclohexyl)amino)benzo[d]thiazol-6-yl)oxy)-N-methylpicolinamide]", "values": [{"measurement": "Spinal Cord Conc.", "setting": "[1]; 65 mg/kg q.d., 3 h post-dose", "result": 11799.8, "unit": "pmol/g"}, {"measurement": "Spinal Cord Conc.", "setting": "[1]; 170 mg/kg CONT, 3 h post-dose", "result": 28358.8, "unit": "pmol/g"}, {"measurement": "Spinal Cord Conc.", "setting": "[1]; 170 mg/kg INT (7 day ON/7 day OFF), 3 h post-dose", "result": 18573.5, "unit": "pmol/g"}, {"measurement": "Kp at 3 h", "setting": "[1]; SOD1G93A (transgenic ALS model), 170 mg/kg CONT, 3 h post-dose, read-out: Spinal Cord/Blood ratio", "result": 0.42}, {"measurement": "concentration at 3 h", "setting": "[1]; SOD1G93A, 65 mg/kg, 65 mg/kg q.d., 3 h post-dose", "result": 29.3, "unit": "µM"}, {"measurement": "concentration at 3 h", "setting": "[1]; SOD1G93A, 170 mg/kg, 170 mg/kg CONT, 3 h post-dose", "result": 66.3, "unit": "µM"}, {"measurement": "concentration at 3 h", "setting": "[1]; SOD1G93A, 170 mg/kg, 170 mg/kg INT (7 day ON/7 day OFF), 3 h post-dose", "result": 50.4, "unit": "µM"}, {"measurement": "Kp at 3 h", "setting": "[1]; SOD1G93A, 65 mg/kg q.d., 3 h post-dose, read-out: Spinal Cord/Blood ratio", "result": 0.42}, {"measurement": "Kp at 3 h", "setting": "[1]; SOD1G93A, 170 mg/kg INT (7 day ON/7 day OFF), 3 h post-dose, read-out: Spinal Cord/Blood ratio", "result": 0.36}, {"measurement": "Kp at 3 h", "setting": "[1]; SOD1G93A, across dose groups, 3 hours post-dose, read-out: spinal cord exposure ratios (relative to blood)", "result": "~0.4"}, {"measurement": "tumor growth inhibition", "setting": "[2]", "result": "not either of the single agent groups dosed with BLZ945 or anti-PD-1 resulted in a statistically significant tumor growth inhibition"}, {"measurement": "tibialis anterior muscle CMAP", "setting": "SOD1G93A ALS mouse; 65 mg/kg", "result": "significantly higher CMAPs than untreated controls until week 6"}, {"measurement": "body weight gain at end of study", "setting": "SOD1G93A ALS mouse; 65 mg/kg and 170 mg/kg 7 days on/7 days off groups, NCAR approx. 16%, vehicle approx. 7%", "result": "approximately 12%"}, {"measurement": "hind limb grip strength", "setting": "SOD1G93A ALS mouse; 65 mg/kg, vs vehicle-treated SOD1 G93A controls, up to week 6 of dosing", "result": "significantly higher grip strength"}, {"measurement": "body weight gain", "setting": "SOD1G93A ALS mouse; 170 mg/kg continuously, 8 weeks", "result": "constant weight gain at the same rate as NCAR mice"}, {"measurement": "tibialis anterior muscle CMAP", "setting": "SOD1G93A ALS mouse; 170 mg/kg, continuous or intermittent dosing", "result": "significantly reduced decline in CMAPs throughout the study period"}, {"measurement": "hind limb grip strength", "setting": "SOD1G93A ALS mouse; 170 mg/kg, continuously or intermittently, vs vehicle-treated SOD1 G93A", "result": "maintained significantly greater grip force throughout the study period"}]}
